Experimental data published in the RepoRT retention time repository.
Where a name gives a salt, the structure may show the parent alone.

Assay: RP, Thermo Scientific Hypersil GOLD, 1.9 µm, 40 °C, 0.4 mL/min; A: water + 0.1% formic acid, pH 3; B: acetonitrile + 0.1% formic acid, pH 3; gradient (min/%B) 0/0 1/0 11/100 13/100 14/0 16/0
Details: stereoisomer not certain

| LC retention time | SMILES |
| --- | --- |
| 9.69 min | CCCCCCCCCCCCCCCC(=O)OC(CC(=O)[O-])C[N+](C)(C)C [Palmitoyl-L-carnitine] |
| 0.64 min | O=P(O)(O)O [Phosphoric acid_+H+] |
| 2.04 min | O=C(O)c1cccc[n+]1[O-] [Picolinic acid N-oxide] |
| 4.4 min | CC(C)CC(NC(=O)C1CCCN1)C(=O)O (stereo not given) [Pro-Leu] |
| 0.68 min | O=C(O)C1(O)CC(O)C(O)C(O)C1 (stereo not given) [QUINATE] |
| 1.22 min | O=C(O)c1cccnc1C(=O)O [QUINOLINATE] |
| 3.83 min | c1ccc2ncccc2c1 [QUINOLINE] |
| 5.53 min | O=c1c(OC2OC(CO)C(O)C(O)C2O)c(-c2ccc(O)c(O)c2)oc2cc(O)cc(O)c12 [Quercetin-3-beta-D-glucoside] |
| 0.68 min | OCC1OC(OCC2OC(OC3(CO)OC(CO)C(O)C3O)C(O)C(O)C2O)C(O)C(O)C1O (stereo not given) [RAFFINOSE] |
| 6.1 min | CC(=O)Oc1cccc(O)c1 [RESORCINOL MONOACETATE] |
| 11.5 min | CC(C=CC1=C(C)CCCC1(C)C)=CC=CC(C)=CC(=O)[O-] [RETINOATE] |
| 0.64 min | OCC(O)C(O)C(O)CO (stereo not given) [RIBITOL] |
| 5.05 min | Cc1cc2nc3c(=O)[nH]c(=O)nc-3n(CC(O)C(O)C(O)CO)c2cc1C (stereo not given) [RIBOFLAVIN] |
| 0.66 min | OCC1OC(O)C(O)C1O (stereo not given) [RIBOSE] |
| 6.02 min | O=C(C=Cc1ccc(O)c(O)c1)OC(Cc1ccc(O)c(O)c1)C(=O)O (stereo not given) [ROSMARINATE] |
| 0.82 min | Nc1ncnc2c1ncn2C1OC(CSCCC([NH3+])C(=O)[O-])C(O)C1O (stereo not given) [S-ADENOSYLHOMOCYSTEINE] |
| 0.59 min | C[S+](CCC(N)C(=O)[O-])CC1OC(n2cnc3c(N)ncnc32)C(O)C1O (stereo not given) [S-ADENOSYLMETHIONINE] |
| 0.68 min | NC(CSCC(=O)O)C(=O)O (stereo not given) [S-CARBOXYMETHYLCYSTEINE] |
| 6.32 min | CCCCCCSCC(NC(=O)CCC(N)C(=O)O)C(=O)NCC(=O)O (stereo not given) [S-HEXYL-GLUTATHIONE] |
| 5.33 min | NC(=O)c1ccccc1O [SALICYLAMIDE] |
| 6.26 min | O=C(O)c1ccccc1O [SALICYLATE] |
| 0.62 min | CNCC(=O)O [SARCOSINE] |

| LC retention time | SMILES |
| --- | --- |
| 0.92 min | C[Se]CCC(N)C(=O)O (stereo not given) [SELENOMETHIONINE] |
| 6.15 min | CC=CC=CC(=O)O [SORBATE] |
| 0.64 min | O=C(CO)C(O)C(O)C(O)CO (stereo not given) [SORBOSE] |
| 9.45 min | CCCCCCCCCCCCCCCC(O)C(N)CO (stereo not given) [SPHINGANINE] |
| 0.67 min | OCC1OC(OCC2OC(OCC3OC(OC4(CO)OC(CO)C(O)C4O)C(O)C(O)C3O)C(O)C(O)C2O)C(O)C(O)C1O (stereo not given) [STACHYOSE] |
| 5.58 min | O=C(O)CCCCCCC(=O)O [SUBERATE] |
| 0.69 min | OCC1OC(OC2(CO)OC(CO)C(O)C2O)C(O)C(O)C1O (stereo not given) [SUCROSE] |
| 6.67 min | O=C(O)CCCCCCCCC(=O)O [Sebacic acid] |
| 4.02 min | Cn1cnc2c1c(=O)[nH]c(=O)n2C [THEOBROMINE] |
| 4.42 min | Cn1c(=O)c2[nH]cnc2n(C)c1=O [THEOPHYLLINE] |
| 0.63 min | Cc1ncc(C[n+]2csc(CCOP(=O)(O)O)c2C)c(N)n1 [THIAMINE MONOPHOSPHATE] |
| 0.65 min | Cc1ncc(C[n+]2csc(CCOP(=O)([O-])OP(=O)(O)O)c2C)c(N)n1 [THIAMINE PYROPHOSPHATE] |
| 0.61 min | Cc1ncc(C[n+]2csc(CCO)c2C)c(N)n1 [THIAMINE] |
| 4.8 min | CSc1ncnc2nc[nH]c12 [THIOPURINE S-METHYLETHER] |
| 0.82 min | Cc1cn(C2CC(O)C(COP(=O)(O)O)O2)c(=O)[nH]c1=O (stereo not given) [THYMIDINE-MONOPHOSPHATE] |
| 3.68 min | Cc1cn(C2CC(O)C(CO)O2)c(=O)[nH]c1=O (stereo not given) [THYMIDINE] |
| 1.47 min | Cc1c[nH]c(=O)[nH]c1=O [THYMINE] |
| 0.84 min | NC(=O)C1CCCN1C(=O)C(Cc1cnc[nH]1)NC(=O)C1CCC(=O)N1 (stereo not given) [THYROTROPIN RELEASING HORMONE] |
| 7.42 min | NC(Cc1cc(I)c(Oc2cc(I)c(O)c(I)c2)c(I)c1)C(=O)O (stereo not given) [THYROXINE] |
| 6.96 min | O=C(O)/C=C/c1ccccc1 [TRANS-CINNAMATE] |
| 0.65 min | OCC1OC(OC2OC(CO)C(O)C(O)C2O)C(O)C(O)C1O (stereo not given) [TREHALOSE] |
| 14.6 min | CCCCCCCCCCCCCCCCCCCCCCC(=O)[O-] [TRICOSANOATE] |

| LC retention time | SMILES |
| --- | --- |
| 0.69 min | C[n+]1cccc(C(=O)[O-])c1 [TRIGONELLINE] |
| 7.45 min | CCCCCCCC=CC(=O)OC(CC(=O)[O-])C[N+](C)(C)C (stereo not drawn) [Trans -2-decenoyl-l-carnitine] |
| 1.36 min | O=C(O)CC(CC(=O)O)C(=O)O [Tricarballylic acid] |
| 0.87 min | O=C([O-])c1c[nH]c(=O)[nH]c1=O [URACIL 5-CARBOXYLATE] |
| 0.84 min | O=c1cc[nH]c(=O)[nH]1 [URACIL] |
| 0.81 min | O=c1[nH]c(=O)c2[nH]c(=O)[nH]c2[nH]1 [URATE] |
| 0.82 min | NC(=O)NCCC(=O)O [UREIDOPROPIONATE] |
| 0.76 min | O=c1ccn(C2OC(COP(=O)(O)O)C(O)C2O)c(=O)[nH]1 (stereo not given) [URIDINE MONOPHOSPHATE] |
| 0.6 min | O=c1ccn(C2OC(COP(=O)(O)OP(=O)(O)OP(=O)(O)O)C(O)C2O)c(=O)[nH]1 (stereo not given) [URIDINE TRIPHOSPHATE] |
| 0.82 min | O=c1ccn(C2OC(CO)C(O)C2O)c(=O)[nH]1 (stereo not given) [URIDINE] |
| 0.82 min | O=C(O)C=Cc1cnc[nH]1 [UROCANATE] |
| 2.11 min | CCOC(N)=O [Urethane] |
| 13.9 min | C=C1CCC(O)CC1=CC=C1CCCC2(C)C1CCC2C(C)C=CC(C)C(C)C (stereo not given) [VITAMIN D2] |
| 4.97 min | COc1cc(C(=O)O)ccc1O [Vanillic acid] |
| 0.82 min | O=c1[nH]c(=O)c2[nH]cnc2[nH]1 [XANTHINE] |
| 0.83 min | O=c1[nH]c(=O)c2ncn(C3OC(COP(=O)(O)O)C(O)C3O)c2[nH]1 (stereo not given) [XANTHOSINE-MONOPHOSPHATE] |
| 4.45 min | O=C(O)c1cc(=O)c2cccc(O)c2[nH]1 [XANTHURENATE] |
| 0.64 min | OC1COC(O)C(O)C1O (stereo not given) [XYLOSE] |
| 0.69 min | CCC(N)C(=O)O [alpha-aminobutyric acid (L-2-aminobutyric acid)] |
| 9.21 min | COC1=C(OC)C(=O)C(CC=C(C)C)=C(C)C1=O [coenzyme Q1] |
| 11 min | COC1=C(OC)C(=O)C(CC=C(C)CCC=C(C)C)=C(C)C1=O [coenzyme Q2] |
| 5.24 min | O=c1c(-c2ccc(O)cc2)coc2cc(OC3OC(CO)C(O)C(O)C3O)ccc12 (stereo not given) [daidzin] |

| LC retention time | SMILES |
| --- | --- |
| 6.88 min | Cc1cc(O)cc2c1OC(C)(CCC(=O)O)CC2 (stereo not given) [delta CEHC] |
| 9.28 min | CC(CCC(=O)O)C1CCC2C3CCC4CC(O)CCC4(C)C3CC(O)C12C (stereo not given) [deoxycholic acid] |
| 6.87 min | O=C(O)CCc1ccccc1 [hydrocinnamic acid] |
| 5.42 min | COC(=O)CCCCC(=O)O [mono-Methyl adipate] |
| 3.97 min | COC(=O)CCC(=O)O [mono-Methyl hydrogen succinate] |
| 0.68 min | CCCCCCCCCCCCCCCCCCC(=O)O [nonadecanoic acid] |
| 5.5 min | O=C(O)CNC(=O)c1ccccc1O [o-Hydroxyhippuric acid] |
| 0.81 min | CC(=O)OC(CC(=O)[O-])C[N+](C)(C)C (stereo not drawn) [o-acetyl-l-carnitine hydrochloride] |
| 8.05 min | CC(=O)C1CCC2C3CC=C4CC(OS(=O)(=O)O)CCC4(C)C3CCC12C (stereo not given) [pregnenolone sulfate] |
| 0.78 min | CC(=O)C(=O)O [pyruvic acid] |
| 6.55 min | O=c1c(O)c(-c2ccc(O)c(O)c2)oc2cc(O)cc(O)c12 [quercetine dihydrate] |
| 5.61 min | CCN(CC)CCCC(C)Nc1c2ccc(Cl)cc2nc2ccc(OC)cc12 (stereo not given) [quinacrine] |
| 6.28 min | Oc1ccc(C=Cc2cc(O)cc(O)c2)cc1 [resveratrol] |
| 5.42 min | CC1OC(OCC2OC(Oc3c(-c4ccc(O)c(O)c4)oc4cc(O)cc(O)c4c3=O)C(O)C(O)C2O)C(O)C(O)C1O (stereo not given) [rutin hydrate] |
| 7.13 min | CC(CCC(=O)NCCS(=O)(=O)O)C1CCC2C3C(O)CC4CC(O)CCC4(C)C3CC(O)C12C (stereo not given) [taurocholic acid  sodium salt hydrate] |
| 5.82 min | O=C(O)/C=C/c1cccc(O)c1 [trans-3-Hydroxycinnamic acid (m-Coumaric acid)] |
| 6.57 min | O=C(O)/C=C/c1c[nH]c2ccccc12 [trans-3-indoleacrylic acid] |
| 0.64 min | C[N+](C)(C)[O-] [trimethylamine N-oxide] |
| 7.15 min | O=C(O)CCCCCCCCCC(=O)O [undecanedioic acid] |

| SMILES | LC retention time |
| --- | --- |
| CC1NCCc2cc(O)c(O)cc21 (stereo not given) [SALSOLINOL] | 0.82 min |
| NCC[Se][Se]CCN [SELENOCYSTAMINE] | 0.56 min |
| NCCc1c[nH]c2ccccc12 [TRYPTAMINE] | 4.7 min |
| NCCc1ccc(O)cc1 [TYRAMINE] | 1.24 min |
| O=C/C=C/c1ccccc1 [Trans-Cinnamaldehyde] | 7.27 min |
